# Laboratory results: patent publication US10301320B2, “Compositions and methods of modulating 15-PGDH activity” (CASE WESTERN RESERVE UNIVERSITY, priority 2012, dated 2019)
# What was measured:
# A549 cells = assay: Cellular toxicity on A549 cells (CellTiter-Glo, cell numbers); type: cell-based
# Method: Time to inhibition refers to the time needed to inhibit the generation of NADH by 15-PGDH from the moment with drug is added into the reaction mix. Delta™ refers to the shift in melting temperature of recombinant 15-PGDH in the presence of drug (with cofactor NADH also present). Concentration of Full Cell Line Reporter Induction refers to the concentration of drug that needs to be added to reporter cell line to achieve maximal induction of the 15-PGDH-luciferase gene fusion reporter cassette, as measured by luciferase assays. Hepatocyte stability refers to the half-life of compound in the presence of hepatocytes in culture. Toxicity refers to the concentration of compound needed to decrease cell numbers in a cell culture assay.
# FIGS. 38(A-C) show assays of cellular toxicity on A549 cells at 24 hours of 15-PGDH inhibitors as assayed by CellTiter-Glo measurement.
# FIGS. 84(A-C) show at left (84A) activity in lowering PGE2 levels in media of A549 cells that are stimulated to produce PGE2 by treatment with IL1-beta.
# C57BL/6J and FVB mice = assay: Liver regeneration after partial hepatectomy; type: in vivo
# C57BL/6J mice = assay: Survival after whole body irradiation; type: in vivo
compound,measurement,setting,value
"CCCC[S+]([O-])c1sc2nc(-c3cccs3)cc(-c3ccccc3)c2c1N (stereo not drawn) [SW033291, 2-(butylsulfinyl)-4-phenyl-6-(thiophen-2-yl)thieno[2,3-b]pyridin-3-amine]","Toxicity, CellTiter-Glo","A549 cells; 24 hours, up to 10 uM in FIG. 38",No effect on CellTitre-Glo levels
same,Toxicity,A549 cells; concentration needed to decrease cell numbers in a cell culture assay,>10 µM
same,"Hepatic mitosis, in words","C57BL/6J and FVB mice; C57BL/6J, 5 mg/kg IP daily",significantly increased hepatic mitosis versus controls on days 3 and 4
same,Serum ALT levels,"C57BL/6J and FVB mice; one mouse, 5 mg/kg IP twice daily",lower
same,"BrdU positive cells in liver, in words",C57BL/6J and FVB mice; post-operative day 2,clear increase in numbers of BrdU positive cells
same,Survival longer than vehicle control,"C57BL/6J mice; 11 Gy, 5 mg/kg IP daily for 7 doses",48 h
same,"Survival longer than vehicle control, on average","C57BL/6J mice; 11 Gy, any of the dosing schedules",1 to 2 days
same,Number of mice surviving,"C57BL/6J mice; Table 7, 7 Gy, Day 5",3
same,Number of mice surviving,"C57BL/6J mice; Table 7, 7 Gy, Day 6",3
same,Number of mice surviving,"C57BL/6J mice; Table 7, 7 Gy, Day 7",3
same,Number of mice surviving,"C57BL/6J mice; Table 7, 7 Gy, Day 8",3
same,Number of mice surviving,"C57BL/6J mice; Table 7, 7 Gy, Day 9",3
same,Number of mice surviving,"C57BL/6J mice; Table 7, 7 Gy, Day 10",3
same,Number of mice surviving,"C57BL/6J mice; Table 7, 7 Gy, Day 11",3
same,Number of mice surviving,"C57BL/6J mice; Table 7, 7 Gy, Day 12",3
same,Number of mice surviving,"C57BL/6J mice; Table 7, 7 Gy, Day 13",3
same,Number of mice surviving,"C57BL/6J mice; Table 7, 7 Gy, Day 14",3
same,Number of mice surviving,"C57BL/6J mice; Table 7, 7 Gy, Day 15",3
same,Condition of surviving mice,"C57BL/6J mice; Table 7, 7 Gy, Day 25 (Looks Healthy)",Healthy
same,Number of mice surviving,"C57BL/6J mice; Table 7, 9 Gy, Day 5",3
same,Number of mice surviving,"C57BL/6J mice; Table 7, 9 Gy, Day 6",3
same,Number of mice surviving,"C57BL/6J mice; Table 7, 9 Gy, Day 7",3
same,Number of mice surviving,"C57BL/6J mice; Table 7, 9 Gy, Day 8",3
same,Number of mice surviving,"C57BL/6J mice; Table 7, 9 Gy, Day 9",3
same,Number of mice surviving,"C57BL/6J mice; Table 7, 9 Gy, Day 10",3
same,Number of mice surviving,"C57BL/6J mice; Table 7, 9 Gy, Day 11",3
same,Number of mice surviving,"C57BL/6J mice; Table 7, 9 Gy, Day 12",2
same,Number of mice surviving,"C57BL/6J mice; Table 7, 9 Gy, Day 13",2
same,Number of mice surviving,"C57BL/6J mice; Table 7, 9 Gy, Day 14",1
same,Number of mice surviving,"C57BL/6J mice; Table 7, 9 Gy, Day 15",0
same,Number of mice surviving,"C57BL/6J mice; Table 7, 11 Gy, Day 5",3
same,Number of mice surviving,"C57BL/6J mice; Table 7, 11 Gy, Day 6",3
same,Number of mice surviving,"C57BL/6J mice; Table 7, 11 Gy, Day 7",3
same,Number of mice surviving,"C57BL/6J mice; Table 7, 11 Gy, Day 8",3
same,Number of mice surviving,"C57BL/6J mice; Table 7, 11 Gy, Day 9",2
same,Number of mice surviving,"C57BL/6J mice; Table 7, 11 Gy, Day 10",0
same,Number of mice surviving,"C57BL/6J mice; Table 8, 11 Gy, 1 dose daily for 7 days, Day 5",3
same,Number of mice surviving,"C57BL/6J mice; Table 8, 11 Gy, 1 dose daily for 7 days, Day 6",3
same,Number of mice surviving,"C57BL/6J mice; Table 8, 11 Gy, 1 dose daily for 7 days, Day 7",3
same,Number of mice surviving,"C57BL/6J mice; Table 8, 11 Gy, 1 dose daily for 7 days, Day 8",2
same,Number of mice surviving,"C57BL/6J mice; Table 8, 11 Gy, 1 dose daily for 7 days, Day 9",1
same,Number of mice surviving,"C57BL/6J mice; Table 8, 11 Gy, 1 dose daily for 7 days, Day 10",0
same,Number of mice surviving,"C57BL/6J mice; Table 8, 11 Gy, 1 dose daily, continuous every day, Day 5",3
same,Number of mice surviving,"C57BL/6J mice; Table 8, 11 Gy, 1 dose daily, continuous every day, Day 6",3
same,Number of mice surviving,"C57BL/6J mice; Table 8, 11 Gy, 1 dose daily, continuous every day, Day 7",3
same,Number of mice surviving,"C57BL/6J mice; Table 8, 11 Gy, 1 dose daily, continuous every day, Day 8",3
same,Number of mice surviving,"C57BL/6J mice; Table 8, 11 Gy, 1 dose daily, continuous every day, Day 9",2
same,Number of mice surviving,"C57BL/6J mice; Table 8, 11 Gy, 1 dose daily, continuous every day, Day 10",0
same,Number of mice surviving,"C57BL/6J mice; Table 8, 11 Gy, 7 days, 2 dose daily, Day 5",3
same,Number of mice surviving,"C57BL/6J mice; Table 8, 11 Gy, 7 days, 2 dose daily, Day 6",3
same,Number of mice surviving,"C57BL/6J mice; Table 8, 11 Gy, 7 days, 2 dose daily, Day 7",3
same,Number of mice surviving,"C57BL/6J mice; Table 8, 11 Gy, 7 days, 2 dose daily, Day 8",3
same,Number of mice surviving,"C57BL/6J mice; Table 8, 11 Gy, 7 days, 2 dose daily, Day 9",2
same,Number of mice surviving,"C57BL/6J mice; Table 8, 11 Gy, 7 days, 2 dose daily, Day 10",0
